From patent US20190022225A1, “PROTOCOL FOR INCREASING LIFE EXPECTANCY IN A TEST SUBJECT” (Mayo Foundation for Medical Education and Research, priority 2015, published 2019)

What was measured:
[1] = system: 3MR mice with bleomycin induced lung injury; assay: Bleomycin induced lung injury model; assay type: in vivo, mouse; details: for lung compliance (static and dynamic) / lung elastance: 21 days post-bleomycin, Nutlin-3A data not statistically significant
Description: One animal model study assessed the effect of clearance of senescence cells in the transgenic mouse strain 3MR that has bleomycin induced lung injury. […] Control mice were administered saline. The day following bleomycin treatment, ganciclovir (GCV) (25 mg/kg in PBS) was administered. 3MR mice were treated via intraperitoneal injection with ganciclovir for 5 consecutive days, followed by 5 days of rest, followed by a second treatment cycle of 5 consecutive days. Untreated mice received an equal volume of vehicle. At 7, 14, and 21 days post-bleomycin treatment, lung function was assessed by monitoring oxygen saturation using the MouseSTAT PhysioSuite pulse oximeter (Kent Scientific). Animals were anesthetized with isoflurane (1.5%) and a toe clip was applied. Mice were monitored for 30 seconds and the average peripheral capillary oxygen saturation (SpO2) measurement over this duration was calculated. […] At 21 days post-bleomycin treatment, airway hyper-reactivity (AHR) of mice was examined. AHR of mice was measured by methacholine challenge while other parameters of lung function (airway mechanics, lung volume and lung compliance) were determined using a SCIREQ flexiVent ventilator. While under ketamine/xylazine anesthesia and subjected to cannulation of the trachea via a tracheostomy (19Fr blunt Luer cannula), airway resistance (elastance) and compliance of mice were assessed at baseline and in response to increasing concentrations of methacholine (0 to 50 mg/ml in PBS) delivered via nebulization (AeroNeb) as described in Aravamudan et al. (Am. J. Physiol. Lung Cell. Mol. Physiol. (2012) 303:L669-L6810). Animals were maintained at 37° C., and while under muscle paralysis (pancuronium); airway function was measured by using the FlexiVent ventilator and lung mechanics system (SCIREQ, Montreal, Quebec, Canada), which was housed on Stabile 8. […] As shown in FIGS. 60B-C, bleomycin administration reduced static compliance and (dynamic) compliance in vehicle treated mice. […] Mice were euthanized by i.p injection of pentobarbital. Bronchoalveolar lavage (BAL) fluids and lungs is obtained and analyzed. Hydroxyproline content of lungs is measured as described in Christensen et al. (1999, Am. J. Pathol. 155:1773-1779), and quantitative histopathology is performed. RNA is extracted from lung tissue to measure senescence cell markers by qRT-PCR in treated and control mice.

[2] = system: 3MR or INK-ATTAC mice exposed to cigarette smoke; assay: Cigarette smoke exposure model (COPD), oxygen saturation; assay type: in vivo, mouse; details: after 2 months of cigarette smoke exposure
Description: Six week-old 3MR (n=35) or INK-ATTAC (n=35) mice were chronically exposed to cigarette smoke generated from a Teague TE-10 system, an automatically-controlled cigarette smoking machine that produces a combination of side-stream and mainstream cigarette smoke in a chamber, which is transported to a collecting and mixing chamber where varying amounts of air is mixed with the smoke mixture. […] Mice received a total of 6 hours of cigarette smoke exposure per day, 5 days a week for 6 months. Each lighted cigarette (3R4F research cigarettes containing 10.9 mg of total particulate matter (TPM), 9.4 mg of tar, and 0.726 mg of nicotine, and 11.9 mg carbon monoxide per cigarette [University of Kentucky, Lexington, Ky.]) was puffed for 2 seconds and once every minute for a total of 8 puffs, with the flow rate of 1.05 L/min, to provide a standard puff of 35 cm^3. The smoke machine was adjusted to produce a mixture of side stream smoke (89%) and mainstream smoke (11%) by smoldering 2 cigarettes at one time. The smoke chamber atmosphere was monitored for total suspended particulates (80-120 mg/m^3) and carbon monoxide (350 ppm). Beginning at day 7, (10) INK-ATTAC and (10) 3MR mice were treated with AP20187 (3×per week) or gancyclovir (5 consecutive days of treatment followed by 16 days off drug, repeated until the end of the experiment), respectively. An equal number of mice received the corresponding vehicle. The remaining 30 mice (15 INK-ATTAC and 15 3MR) were evenly split with 5 of each genetically modified strain placed into three different treatment groups. One group (n=10) received Nutlin-3A (25 mg/kg dissolved in 10% DMSO/3% Tween-20 in PBS, treated 14 days consecutively followed by 14 days off drug, repeated until the end of the experiment). One group (n=10) received ABT-263 (Navitoclax) (100 mg/kg dissolved in 15% DMSO/5% Tween-20, treated 7 days consecutively followed by 14 days off drug, repeated until the end of the experiment), and the last group (n=10) received only the vehicle used for ABT-263 (15% DMSO/5% Tween-20), following the same treatment regimen as ABT-263.
After two months of cigarette smoke exposure, lung function was assessed by monitoring oxygen saturation using the MouseSTAT PhysioSuite pulse oximeter (Kent Scientific). Animals were anesthetized with isoflurane (1.5%) and the toe clip was applied. Mice were monitored for 30 seconds and the average peripheral capillary oxygen saturation (SpO2) measurement over this duration was calculated.

SMILES | lung compliance (static and dynamic) [1] | lung elastance [1] | peripheral capillary oxygen saturation (SpO2) ([1]; approached normal levels at 21 days post bleomycin) | SpO2 levels versus untreated controls [2]
Nc1nc(O)c2ncn(COC(CO)CO)c2n1 [ganciclovir] | improved compliance values significantly | reduced lung elastance | higher SpO2 levels | statistically significant increases
COc1ccc(C2=N[C@@H](c3ccc(Cl)cc3)[C@@H](c3ccc(Cl)cc3)N2C(=O)N2CCNC(=O)C2)c(OC(C)C)c1 [Nutlin-3a] | increased lung compliance | reduced lung elastance |  | statistically significant increases
